US20020127282A1, “Multivalent silver pharmaceuticals” (priority 1991, published 2002)
Read-outs that look alike come from different tables or passages of the source.

Assays:
[1] = system: Candida albicans strain 16464; conditions: Sabouraud dextrose broth
Experimental: (§1) Both the prepared and commercial materials were submitted for bactericidal evaluation following “good laboratory practice” regulations as set forth in Federal regulations (FIFRA and ffdca/40 CFR 150, May 2, 1984). The silver materials were tested as to whether they could kill pathogenic microorganisms with the intent of utilizing them in pharmaceutical applications. […] Strains of gram positive bacteria were chosen for the evaluation. One family of pathogens that are known for their deleterious effects on humans are popularly called “staph” infections. These infections are commonly contracted in hospitals having lax infectious screening procedures. Accordingly, three staph strains were selected as follows for evaluation: Staphylococcus aureus 9027 and 27543, and Staphylococcus epidermidis 12228. The inoculum nutrient broth was prepared according to AOAC specifications so as to contain 0.6-1 million organisms per drop of inoculum, each drop being equal to 0.05 ml. The broth itself was trypticase soy broth BBL 11766 prepared according to label instructions. Accordingly, the broth was prestandardized for the microorganisms in question in order to assure that the number of organisms remained constant within the margins of statistical allowance during the test period. […] Other gram positive bacteria pathogens were similarly evaluated.

[2] = system: Streptococcus pyogenes 7958
Experimental: as §1

Bacillus subtilis 6633 = system: Bacillus subtilis 6633
Experimental: as §1

[3] = system: Staphylococcus epidermidis 12228; conditions: 24 hours at 34-35° C., 10 PPM sodium persulfate
Experimental: as §1

Micrococcus luteus 9341 = system: Micrococcus luteus 9341
Experimental: as §1

Candida albercans = conditions: Sabouraud dextrose broth
[4] = rabbits, dermal application
Experimental: (§2) Tests were conducted to see whether said tetroxide posed any harm to the human body. Accordingly, a 3% concentrate of the compound was prepared for a series of evaluations.
The second evaluation was for acute dermal toxicity in rabbits. The protocol, 40 CFR 158.135, 81-2, was to determine the LD50 for dermal application.

[5] = rats
Experimental: as §2
The first evaluation met the requirements of Code of Federal Regulations (40 CFR 160). It consisted of determining the single dose toxicity in rats or LD50.

[6] = albino rabbits, oxide concentrate
Experimental: as §2
The third evaluation, entitled “Primary Dermal Irritation in Albino Rabbits”, conformed to 40 CFR 160. It consisted of exposing the rabbits for prolonged periods of time and observing edema, erythema, ulceration, necrosis and any other evidence of dermal reactions or tissue destruction.

[7] = crystal concentrate applied
Experimental: as §2
The fourth evaluation dealt with primary eye irritation. This also was in conformity with 40 CFR 160.

[8] = system: Streptococcus ogalactiae 27956
Experimental: (§4) Once it could be determined that the devices inhibited a particular microorganism, the minimal concentration required of Ag4O4 was determined to inhibit the microorganism in nutrient broth. Strains of gram positive bacteria were chosen for the evaluation. […] Accordingly, three staph strains were selected as follows for evaluation: Staphylococcus aureus 9027 and 27543, and Staphylococcus epidermidis 12228. The inoculum nutrient broth was prepared according to AOAC specifications so as to contain 0.6-1 million organisms per drop of inoculum, each drop being equal to 0.05 ml. The broth itself was trypticase soy broth BBL 11766 prepared according to label instructions. Accordingly, the broth was prestandardized for the microorganisms in question in order to assure that the number of organisms remained constant within the margins of statistical allowance during the test period.

Staphylococcus aureus = conditions: 24 hours at 34-35° C., 10 PPM sodium persulfate
Experimental: as §4

E. coli [9] = conditions: 0.5 PPM; within 0.5 minutes; 10 PPM sodium persulfate; AOAC protocol
Experimental: (§5) Select compounds of said moieties were also evaluated against algae utilizing Chorella species incubated for 10 days in algae nutrient. […] It was evaluated at 0.5 and 1.0 PPM on gram positive and negative cultures in the presence of 10 PPM sodium persulfate.

[10] = system: Saccharomycetpideae variety; conditions: Sabouraud dextrose broth
Text: Silver tetroxide was further evaluated in analogous nutrient used for yeasts and molds, namely, Sabouraud dextrose broth.

[11] = system: Pseudomonas aeruginosa 9027; conditions: concentration not given
Experimental: (§3) More stringent testing was then performed in which the cultures were actually placed in trypticase soy nutrient broth, which allowed the pathogens being tested to replicate without being detached from its own food supply.

E. coli [12] = conditions: trypticase soy nutrient broth
Experimental: as §3

[13] = system: Streptococcus faecalis strain 10541; conditions: trypticase soy nutrient broth
Experimental: as §3

[14] = system: Enterobacter cloacac 13047; conditions: concentration not given
Streptococcus faecalis = conditions: 0.5 PPM; within 0.5 minutes; 10 PPM sodium persulfate; AOAC protocol
Experimental: as §5

Chorella species = assay type: cell-based; conditions: within 5 minutes; Chorella species incubated for 10 days in algae nutrient
Experimental: as §5

[Ag+].[Ag+].[Ag+].[Ag+].[O-2].[O-2].[O-2].[O-2] [Tetrasilver tetroxide]
concentration completely inhibiting growth [1]: 2.5 PPM
minimal inhibiting concentration required for 100% kills [2]: 2.50 PPM
minimal inhibiting concentration required for 100% kills (Bacillus subtilis 6633): 5.00 PPM
minimal concentration to inhibit the microorganism [3]: 0.625 PPM
minimal inhibiting concentration required for 100% kills (Micrococcus luteus 9341): 1.25 PPM
concentration at which totally killed (Candida albercans): 2.5 PPM
toxicity category (acute dermal) [4]: category III
dermal LD50 ([4]; all animals survived maximum dose): greater than 2000 mg./Kg.
FDA toxicity category ([5]; single dose toxicity): category IV
LD50 ([5]; single dose, 3% concentrate, all animals survived): greater than 5000 mg./Kg.
FDA category as dermal agent [6]: category IV
dermal reactions (edema, erythema, ulceration, necrosis, tissue destruction) ([6]; prolonged exposure): none
FDA category for eye effects [7]: category IV
eye irritation [7]: no eye irritation
minimal inhibiting concentration required for 100% kills [8]: 1.25 PPM
minimal concentration to inhibit the microorganism (Staphylococcus aureus; Staphylococcus aureus 9027): 2.5 PPM
minimal concentration to inhibit the microorganism (Staphylococcus aureus; Staphylococcus aureus 27543): 5.0 PPM
kill of colonies of E. coli (E. coli [9]): 100%
concentration at which totally killed [10]: 1.25 PPM
kills [11]: 100%
concentration achieving 100% kills (E. coli [12]; E. coli strain 10231): 2.5 PPM
concentration achieving 100% kills (E. coli [12]; E. coli strain 25254): 2.5 PPM
concentration achieving 100% kills [13]: 5.0 PPM
kills [14]: 100%
kill of colonies of Streptococcus faecalis (Streptococcus faecalis): 100%
concentration effecting 100% kills of algae (Chorella species): about 1 PPM
